Assay results from ChEMBL document CHEMBL1201862, “PubChem BioAssay data set” (2004).
Values joined by “and” are separate entries in the source; they are usually repeats but may differ in a detail not shown here. Equal values may be shown once.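 Cells were grown in 96-well plates and exposed to each compound for 48 hours at five concentrations; endpoints were interpolated linearly between bracketing concentrations, or set to the highest concentration if not reached. Abbreviation: GI50, concentration required for 50% inhibition of growth.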 Active and inactive are the calls of the source. No stated cut-off is given here; in the data, active = GI50 up to about 1.1 µM and inactive = higher.

How the values were obtained:
Test in all cases: NCI-60 cell line screen, 48 h
SK-MEL-5 = test system: SK-MEL-5
RXF 393 = test system: RXF 393
OVCAR-3 = test system: OVCAR-3
IGROV-1 = test system: IGROV-1
SNB-75 = test system: SNB-75
CCRF-CEM = test system: CCRF-CEM
NCI-H226 = test system: NCI-H226
ACHN = test system: ACHN
MDA-MB-231 = test system: MDA-MB-231
Hs-578T = test system: Hs-578T
SK-MEL-2 = test system: SK-MEL-2
UACC-257 = test system: UACC-257
HCC 2998 = test system: HCC 2998
BT-549 = test system: BT-549
SN12C = test system: SN12C
DU-145 = test system: DU-145
HL-60 = test system: HL-60
EKVX = test system: EKVX
MCF7 = test system: MCF7
LOX IMVI = test system: LOX IMVI

| SMILES | GI50 (SK-MEL-5) | GI50 (RXF 393) | GI50 (OVCAR-3) | GI50 (IGROV-1) | GI50 (SNB-75) | GI50 (CCRF-CEM) | GI50 (NCI-H226) | GI50 (ACHN) | GI50 (MDA-MB-231) | GI50 (Hs-578T) | GI50 (SK-MEL-2) | GI50 (UACC-257) | GI50 (HCC 2998) | GI50 (BT-549) | GI50 (SN12C) | GI50 (DU-145) | GI50 (HL-60) | GI50 (EKVX) | GI50 (MCF7) | GI50 (LOX IMVI) |
| --- | --- | --- | --- | --- | --- | --- | --- | --- | --- | --- | --- | --- | --- | --- | --- | --- | --- | --- | --- | --- |
| Cc1cc(=O)nc(S(=O)(=O)NC(=S)Nc2ccc(Cl)cc2)[nH]1 | > 100 µM (inactive) | 2.74 µM (inactive) | > 100 µM (inactive) | > 100 µM (inactive) | 64 µM (inactive) | > 100 µM (inactive) | > 100 µM (inactive) | > 100 µM (inactive) | > 100 µM (inactive) | > 100 µM (inactive) | > 100 µM (inactive) | > 100 µM (inactive) | > 100 µM (inactive) | > 100 µM (inactive) | > 100 µM (inactive) | > 100 µM (inactive) | > 100 µM (inactive) | 39.5 µM (inactive) | > 100 µM (inactive) | – |
| Cc1ccc(S(=O)(=O)N/N=C2\CC3CC4CCC2C4C3)cc1 (configuration not stated) | > 100 µM (inactive) | > 100 µM (inactive) | > 100 µM (inactive) | > 100 µM (inactive) | > 100 µM (inactive) | > 100 µM (inactive) | > 100 µM (inactive) | > 100 µM (inactive) | > 100 µM (inactive) | > 100 µM (inactive) | – | > 100 µM (inactive) | > 100 µM (inactive) | > 100 µM (inactive) | > 100 µM (inactive) | > 100 µM (inactive) | > 100 µM (inactive) | > 100 µM (inactive) | > 100 µM (inactive) | > 100 µM (inactive) |
| C=C1C(=O)OC2/C=C(\CO)C(OC(C)=O)CC(O)/C(C)=C/C(OC(=O)C(C)CC)C12 (configuration not stated) | 18.8 µM (inactive) and 17 µM (inactive) | 23.1 µM (inactive) and 24.4 µM (inactive) | 18.5 µM (inactive) and 16.5 µM (inactive) | 38.4 µM (inactive) and 40 µM (inactive) | 24.3 µM (inactive) | – | 29.6 µM (inactive) | 26.2 µM (inactive) and 23.7 µM (inactive) | 17.3 µM (inactive) | 36.9 µM (inactive) | 17.5 µM (inactive) and 17.1 µM (inactive) | 15.2 µM (inactive) and 18 µM (inactive) | 22.4 µM (inactive) and 15.6 µM (inactive) | 19.4 µM (inactive) | 18.2 µM (inactive) and 20.2 µM (inactive) | 19.8 µM (inactive) | 5.86 µM (inactive) and 4.97 µM (inactive) | 25.5 µM (inactive) and 25.1 µM (inactive) | 12.9 µM (inactive) | 18.8 µM (inactive) and 13.7 µM (inactive) |
| CC(C)C(C=O)C(O)(C(F)(F)F)C(F)(F)F (configuration not stated) | > 100 µM (inactive) | > 100 µM (inactive) | > 100 µM (inactive) | > 10 µM (inactive) | 11.3 µM (inactive) | > 10 µM (inactive) | > 100 µM (inactive) | > 100 µM (inactive) | > 100 µM (inactive) | 59.3 µM (inactive) | > 100 µM (inactive) | > 100 µM (inactive) | > 100 µM (inactive) | > 100 µM (inactive) | – | > 100 µM (inactive) | > 100 µM (inactive) | > 100 µM (inactive) | > 100 µM (inactive) | > 100 µM (inactive) |
| CC(C)C/C=C/C1=NN(c2cccc(S(=O)(=O)O)c2)C2(C1)SCC(=O)N2c1nc2ccccc2s1 (configuration not stated) | 64 µM (inactive) | 98.4 µM (inactive) | – | 36.8 µM (inactive) | 97.5 µM (inactive) | 23.3 µM (inactive) | 29.2 µM (inactive) | 72.4 µM (inactive) | 38.9 µM (inactive) | 56.8 µM (inactive) | 35.2 µM (inactive) | > 100 µM (inactive) | > 100 µM (inactive) | 83.2 µM (inactive) | 31.9 µM (inactive) | 44.2 µM (inactive) | 29.9 µM (inactive) | > 100 µM (inactive) | 30.5 µM (inactive) | 26.8 µM (inactive) |
| CSc1ncc2c(n1)-c1ccccc1OC2NC(C)(C)C (configuration not stated) | – | 98.4 µM (inactive) | > 100 µM (inactive) | – | 27.2 µM (inactive) | 91.4 µM (inactive) | 31.4 µM (inactive) | 92.9 µM (inactive) | > 100 µM (inactive) | 83.4 µM (inactive) | – | > 100 µM (inactive) | 21.3 µM (inactive) | 44.9 µM (inactive) | > 100 µM (inactive) | > 100 µM (inactive) | > 100 µM (inactive) | 29 µM (inactive) | 36.5 µM (inactive) | > 100 µM (inactive) |
| COc1ccc(C(=O)Nc2ccc(O)c(=O)cc2)cc1 | 41.6 µM (inactive) | 13.6 µM (inactive) | 27.6 µM (inactive) | 37.9 µM (inactive) | – | 24 µM (inactive) | > 100 µM (inactive) | 23.7 µM (inactive) | 42.3 µM (inactive) | 29.2 µM (inactive) | 50.1 µM (inactive) | 40.6 µM (inactive) | 39.9 µM (inactive) | 38.5 µM (inactive) | 36.5 µM (inactive) | 25.6 µM (inactive) | 21.3 µM (inactive) | 21.4 µM (inactive) | 21.5 µM (inactive) | 38.7 µM (inactive) |
| CC(C)(C)[C@@H]1NC(=O)CN1C(=O)OCc1ccccc1 | > 100 µM (inactive) | > 100 µM (inactive) | – | > 100 µM (inactive) | > 100 µM (inactive) | > 100 µM (inactive) | > 100 µM (inactive) | > 100 µM (inactive) | > 100 µM (inactive) | 0.661 µM (active) | > 100 µM (inactive) | > 100 µM (inactive) | > 100 µM (inactive) | > 100 µM (inactive) | > 100 µM (inactive) | > 100 µM (inactive) | > 100 µM (inactive) | > 100 µM (inactive) | > 100 µM (inactive) | > 100 µM (inactive) |
| Cc1cc(C(=C2C=CC(=N)C=C2)c2ccc(N)cc2)ccc1N [FUCHSIN, BASIC] | 1.46 µM (inactive) | 7.16 µM (inactive) | 3.96 µM (inactive) | 10.7 µM (inactive) | – | 4.19 µM (inactive) | 3.19 µM (inactive) | 8.09 µM (inactive) | 6.3 µM (inactive) | 0.494 µM (active) | 3.18 µM (inactive) | 3.65 µM (inactive) | 3.23 µM (inactive) | 0.82 µM (active) | 0.299 µM (active) | 5.4 µM (inactive) | 3.21 µM (inactive) | 6.04 µM (inactive) | 3.13 µM (inactive) | 2.25 µM (inactive) |
| CC1=NN(c2nc(N)nc(/C(C#N)=C/c3ccccc3O)n2)C(C)(C)C1 | 15.5 µM (inactive) | 20.2 µM (inactive) | 14.7 µM (inactive) | 23.1 µM (inactive) | – | 18 µM (inactive) | 17.3 µM (inactive) | 18.5 µM (inactive) | 19.9 µM (inactive) | 16.3 µM (inactive) | 22.2 µM (inactive) | 18.9 µM (inactive) | 19.5 µM (inactive) | 36.2 µM (inactive) | 25.5 µM (inactive) | 15.4 µM (inactive) | 30.3 µM (inactive) | 16 µM (inactive) | 24.8 µM (inactive) | – |
